The source of these data is patent publication US20100022541A1, “Chemical inhibitors of bacterial heptose synthesis, methods for their preparation and biological applications of said inhibitors” (priority 2006, published 2010).

The experiment deals with T1, RfaE (Escherichia coli, UniProt P76658).
T1 construct: made in house; host or cells: E. coli
As to the kind of experiment: Inhibition of the enzymatic activity of RfaE (HTS luminescent or fluorescent biochemical assay). Details: species or system E. coli. The conditions noted are these: inhibitor tested at 6 to 10 concentrations; 30 min pre-incubation at room temperature. How it is done: According to another object, the invention also relates to a method for assessing RfaE enzymatic activity. • Said method comprises • pre-incubating at room temperature • DMSO or inhibitor to be tested dissolved in DMSO and RfaE in an assay buffer • and either • adding a reaction mixture composed of RfaE, β-heptose-7-phosphate, ATP, in the assay buffer and incubating at room temperature • adding a revelation mixture composed of luciferase, D-luciferin and N-acetylcysteamine • measuring the luminescence intensity and converting into inhibition % to further calculate the IC50 values; • or • adding a reaction mixture composed of RfaE, β-heptose-7-phosphate ATP, pyruvate kinase, phosphoenolpyruvate, lactate dehydrogenase and NADH in said assay buffer, • measuring the fluorescence intensity of NADH kinetically and deriving inhibition % from fitted initial velocities, to further calculate the IC50 values.
Inhibition of the Enzymatic Activity of RfaE
RfaE is a kinase belonging to the ribokinase family. It catalyses an essential step of the biosynthesis of L-ADP-Heptose, namely the phosphorylation of β-heptose-7-phosphate (H7P) into β-heptose-1,7-bisphosphate (H17P). RfaE assays as described in the literature are essentially based on direct HLPC detection of the substrates H7P and ATP, and of the products H17P and ADP, raising obvious limitations for HTS applications. The assays described below are based either on luminescent ATP detection, or on fluorescent ADP detection. They are easily amenable to miniaturized formats and fast readouts as required by HTS.
The assay buffer “AB” contains 50 mM Hepes pH7.5, 1 mM MnCl2, 25 mM KCl, 0.012% Triton-X100 and 1 mM DTT. The following components are added in a white polystyrene Costar plate up to a final volume of 31 μL: 3 μL DMSO, or inhibitor dissolved in DMSO and 28 μL RfaE in AB. After 30 min of pre-incubation at room temperature, 29 μL of Substrates mix in AB are added in each well to a final volume of 60 μL. This reaction mixture is then composed of 3 nM RfaE (produced in house from E. coli), 0.2 μM β-heptose-7-phosphate (in house synthesis) and 0.2 μM ATP (Sigma) in assay buffer. After 40 min of incubation at room temperature, 200 μL of the revelation mix are added to a final volume of 260 μL, including the following constituents at the respective final concentrations: 2 nM luciferase (Sigma), 30 μM D-luciferin (Sigma), 100 μM N-acetylcysteamine (Aldrich). Luminescence intensity is immediately measured on an Analyst-HT (Molecular Devices) and converted into inhibition percentages. For IC50 determinations, the inhibitor is tested at 6 to 10 different concentrations, and the related inhibitions are fitted to a classical langmuir equilibrium model using XLFIT (IDBS).
The assay buffer “AB” contains 50 mM Hepes pH7.5, 1 mM MnCl2, 25 mM KCl, 0.012% Triton-X100 and 1 mM DTT. The following components are added in a black polystyrene Costar plate up to a final volume of 50 μL: 5 μL DMSO, or inhibitor dissolved in DMSO and 45 μL RfaE in AB. After 30 min of pre-incubation at room temperature, 50 μL of Substrates-revelation mix in AB are added in each well to a final volume of 100 μL. This reaction mixture is then composed of 66 μM RfaE (produced in house from E. coli), 1 μM β-heptose-7-phosphate (in house synthesis), 50 μM ATP (Sigma), 5 u/mL Pyruvate Kinase (Sigma), 50 μM phosphoenolpyruvate (Sigma), 5 u/mL Lactate dehydrogenase (Sigma) and 2.5 μM NADH (Sigma) in assay buffer. Fluorescence intensity of NADH (λex=360 nm, λem=520 nm) is immediately measured kinetically by a Fluostar Optima (BMG). Inhibition percentages are derived from fitted initial velocities. For IC50 determinations, the inhibitor is tested at 6 to 10 different concentrations, and the related inhibitions are fitted to a classical langmuir equilibrium model using XLFIT (IDBS).

T1 sequence (P76658 whole entry): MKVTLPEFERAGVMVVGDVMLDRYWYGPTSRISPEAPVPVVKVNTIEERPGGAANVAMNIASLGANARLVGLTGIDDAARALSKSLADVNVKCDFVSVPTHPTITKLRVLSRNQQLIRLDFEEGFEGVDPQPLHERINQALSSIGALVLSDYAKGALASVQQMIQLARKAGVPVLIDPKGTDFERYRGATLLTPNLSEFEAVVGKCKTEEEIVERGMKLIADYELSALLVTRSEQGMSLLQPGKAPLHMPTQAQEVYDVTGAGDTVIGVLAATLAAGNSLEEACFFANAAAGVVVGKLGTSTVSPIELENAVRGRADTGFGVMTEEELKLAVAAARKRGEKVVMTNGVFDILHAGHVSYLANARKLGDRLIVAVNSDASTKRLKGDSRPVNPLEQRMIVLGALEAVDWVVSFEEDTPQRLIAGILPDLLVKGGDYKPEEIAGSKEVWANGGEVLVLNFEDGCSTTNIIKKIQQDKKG

The molecule `Cc1oc(-c2ccccc2C(F)(F)F)nc1C(=O)N(CC(=O)O)Cc1ccccn1` [XV, [({5-methyl-2-[2-(trifluoromethyl)phenyl]-1,3-oxazol-4-yl}carbonyl)(pyridin-2-ylmethyl)amino]acetic Acid] returned an IC50 of 121 µM.
Next, `COc1ccc(-c2nc(C(=O)N(CC(=O)O)Cc3ccccn3)c(C)o2)cc1` [Example XXI, [{[2-(4-methoxyphenyl)-5-methyl-1,3-oxazol-4-yl]carbonyl}(pyridin-2-ylmethyl)amino]acetic Acid]: 75 µM.
In the case of `Cc1oc(-c2cccc(NC(=O)C3CC3)c2)nc1C(=O)N(CC(=O)O)Cc1ccccn1` [XXVIII, {[(2-{3-[(cyclopropylcarbonyl)amino]phenyl}-5-methyl-1,3-oxazol-4-yl)carbonyl](pyridin-2-ylmethyl)amino}acetic Acid] it was 14 µM; in that of `COc1cccc(-c2nc(C)c(C(=O)N(CC(=O)O)Cc3ccccn3)o2)c1` [III, [{[2-(3-methoxyphenyl)-4-methyl-1,3-oxazol-5-yl]carbonyl}(pyridin-2-ylmethyl)amino]acetic Acid], 17 µM; in that of `Cc1oc(-c2cccc(Br)c2)nc1C(=O)N(CC(=O)O)Cc1ccccn1` [XVIII, [{[2-(3-bromophenyl)-5-methyl-1,3-oxazol-4-yl]carbonyl}(pyridin-2-ylmethyl)amino]acetic Acid], 10 µM.
Next, `Cc1oc(-c2ccccc2)nc1C(=O)N(CC(=O)O)Cc1nccs1` [XXXIII, [[(5-methyl-2-phenyl-1,3-oxazol-4-yl)carbonyl](1,3-thiazol-2-ylmethyl)amino]acetic Acid]: 110 µM; `Cc1oc(-c2ccc(N)cc2)nc1C(=O)N(CC(=O)O)Cc1ccccn1` [XXVII, [{[2-(4-aminophenyl)-5-methyl-1,3-oxazol-4-yl]carbonyl}(pyridin-2-ylmethyl)amino]acetic Acid]: 22 µM.
The molecule `Cc1oc(-c2cccc(C(F)(F)F)c2)nc1C(=O)N(CC(=O)O)Cc1ccccn1` [XIV, [({5-methyl-2-[3-(trifluoromethyl)phenyl]-1,3-oxazol-4-yl}carbonyl)(pyridin-2-ylmethyl)amino]acetic Acid] registered an IC50 of 35 µM.
In the case of `Cn1nc(-c2ccccc2)cc1C(=O)N(CC(=O)O)Cc1ccccn1` [VIII, [[(1-methyl-3-phenyl-1H-pyrazol-5-yl)carbonyl](pyridin-2-ylmethyl)amino]acetic Acid] it was 57 µM.
The molecule `O=C(O)CN(Cc1ccccn1)C(=O)c1nc(-c2ccccc2)oc1C(F)(F)F` [XIII, [{[2-phenyl-5-(trifluoromethyl)-1,3-oxazol-4-yl]carbonyl}(pyridin-2-ylmethyl)amino]acetic Acid] displayed an IC50 of 80 µM.
In the case of `COc1cccc(-c2nc(C)c(C(=O)N(CC(=O)O)Cc3nc4ccccc4s3)o2)c1` [XXIX, ((1,3-benzothiazol-2-ylmethyl){[2-(3-methoxyphenyl)-4-methyl-1,3-oxazol-5-yl]carbonyl}amino)acetic Acid] it was 0.24 µM; in that of `Cc1nc(-c2ccccc2)oc1C(=O)N(CC(=O)O)Cc1ccccn1` [VI, [[(4-methyl-2-phenyl-1,3-oxazol-5-yl)carbonyl](pyridin-2-ylmethyl)amino]acetic Acid], 71 µM.
In the case of `Cc1nc(-c2ccccc2)sc1C(=O)N(CC(=O)O)Cc1ccccn1` [IX, [[(4-methyl-2-phenyl-1,3-thiazol-5-yl)carbonyl](pyridin-2-ylmethyl)amino]acetic Acid] it was 52 µM.
Next, `Cc1oc(-c2cccc(O)c2)nc1C(=O)N(CC(=O)O)Cc1ccccn1` [XXV, [{[2-(3-hydroxyphenyl)-5-methyl-1,3-oxazol-4-yl]carbonyl}(pyridin-2-ylmethyl)amino]acetic Acid]: 50 µM.
For the molecule `Cc1nc(-c2ccc(N)c([N+](=O)[O-])c2)sc1C(=O)N(CC(=O)O)Cc1ccccn1` [XXXVII, [{[2-(4-amino-3-nitrophenyl)-4-methyl-1,3-thiazol-5-yl]carbonyl}(pyridin-2-ylmethyl)amino]acetic Acid], the IC50 was 12.9 µM.
Next, `CC(=O)Oc1cccc(-c2nc(C)c(C(=O)N(CC(=O)O)Cc3ccccn3)o2)c1` [IV, [({2-[3-(acetyloxy)phenyl]-4-methyl-1,3-oxazol-5-yl}carbonyl)(pyridin-2-ylmethyl)amino]acetic Acid]: 52 µM; `CC(=O)c1cccc(-c2nc(C)c(C(=O)N(CC(=O)O)Cc3ccccn3)s2)c1` [XXXVI, [{[2-(3-acetylphenyl)-4-methyl-1,3-thiazol-5-yl]carbonyl}(pyridin-2-ylmethyl)amino]acetic Acid]: 216 µM.
In the case of `COc1cccc(-c2nc(C(=O)N(CC(=O)O)Cc3ccccn3)c(C)o2)c1` [Example XX, [{[2-(3-methoxyphenyl)-5-methyl-1,3-oxazol-4-yl]carbonyl}(pyridin-2-ylmethyl)amino]acetic Acid] it was 15 µM; in that of `Cc1oc(-c2ccccc2)nc1C(=O)N(CC(=O)O)Cc1ccccn1` [XII, [[(5-methyl-2-phenyl-1,3-oxazol-4-yl)carbonyl](pyridin-2-ylmethyl)amino]acetic Acid], 51 µM; in that of `O=C(O)CN(Cc1ccccn1)C(=O)c1nc(-c2ccccc2)oc1CN1CCOCC1` [II, [{[5-(morpholin-4-ylmethyl)-2-phenyl-1,3-oxazol-4-yl]carbonyl}(pyridin-2-ylmethyl)amino]acetic Acid], 197 µM.
Next, `Cc1nc(-c2ccc3[nH]ccc3c2)sc1C(=O)N(CC(=O)O)Cc1nc2ccccc2s1` [XXXVIII, ((1,3-benzothiazol-2-ylmethyl){[2-(1H-indol-5-yl)-4-methyl-1,3-thiazol-5-yl]carbonyl}amino)acetic Acid]: 0.33 µM.
As to `Cc1nc(-c2ccc3ccccc3c2)sc1C(=O)N(CC(=O)O)Cc1nc2ccccc2s1` [XLI, ((1,3-benzothiazol-2-ylmethyl){[4-methyl-2-(2-naphthyl)-1,3-thiazol-5-yl]carbonyl}amino)acetic Acid], the IC50 worked out at 0.48 µM.
Molecule `Cc1oc(-c2ccccc2N)nc1C(=O)N(CC(=O)O)Cc1ccccn1` [XXVI, [{[2-(2-aminophenyl)-5-methyl-1,3-oxazol-4-yl]carbonyl}(pyridin-2-ylmethyl)amino]acetic Acid] returned an IC50 of 31 µM.
Next, `Cc1oc(-c2ccccc2)nc1C(=O)N(CC(=O)O)Nc1ccccn1` [XXXI, {1-[(5-methyl-2-phenyl-1,3-oxazol-4-yl)carbonyl]-2-pyridin-2-ylhydrazino}acetic Acid]: 65 µM; `Cc1oc(-c2ccccc2Br)nc1C(=O)N(CC(=O)O)Cc1ccccn1` [XIX, [{[2-(2-bromophenyl)-5-methyl-1,3-oxazol-4-yl]carbonyl}(pyridin-2-ylmethyl)amino]acetic Acid]: 44 µM.
Consider “[{[2-(4-bromophenyl)-5-methyl-1,3-oxazol-4-yl]carbonyl}(pyridin-2-ylmethyl)amino]acetic Acid [XVII]”, for which the IC50 came out at 27 µM.
Next, `Cc1oc(-c2ccc(O)cc2)nc1C(=O)N(CC(=O)O)Cc1ccccn1` [XXIV, [{[2-(4-hydroxyphenyl)-5-methyl-1,3-oxazol-4-yl]carbonyl}(pyridin-2-ylmethyl)amino]acetic Acid]: 39 µM; `Cc1nc(-c2cccc([N+](=O)[O-])c2)sc1C(=O)N(CC(=O)O)Cc1nc2ccccc2s1` [XXXIX, ((1,3-benzothiazol-2-ylmethyl){[4-methyl-2-(3-nitrophenyl)-1,3-thiazol-5-yl]carbonyl}amino)acetic Acid]: 0.5 µM.

The IC50 is the concentration at which inhibition is half-maximal.
